Measurements reported in patent US9040542B2, “Solid forms of gyrase inhibitor (R)-1-ethyl-3-[6-fluoro-5-[2-(1-hydroxy-1-methyl-ethyl)pryimidin-5-yl]-7-(tetrahydrofuran-2-yl)-1H-benzimidazol-2-yl]urea” (priority 2011, dated 2015).
Values after ≈ are worked out from the molar mass of the structure shown. Values joined by “and” are separate entries in the source; they are usually repeats but may differ in a detail not shown here. Equal values may be shown once.

Legend:
[1] = tested on: Moraxella catarrhalis; assay: MIC90 panel, Protocol 2 microdilution broth; type: cell-based; conditions: 26 isolates
Description: (§1) The specific protocols used were as follows:
(§2) Drug dilutions, inoculation, MIC determination: • 1.

[2] = tested on: Proteus mirabilis; assay: MIC90 panel, Protocol 2 microdilution broth; type: cell-based; conditions: 12 isolates
Description: as §1, §2

[3] = tested on: Acinetobacter baumannii; assay: MIC90 panel, Protocol 2 microdilution broth; type: cell-based; conditions: 12 isolates
Description: as §1, §2

[4] = tested on: Enterobacter cloacae; assay: MIC90 panel, Protocol 2 microdilution broth; type: cell-based; conditions: 12 isolates
Description: as §1, §2

[5] = tested on: Escherichia coli; assay: MIC90 panel, Protocol 2 microdilution broth; type: cell-based; conditions: 12 isolates
Description: as §1, §2

[6] = tested on: Pseudomonas aeruginosa; assay: MIC90 panel, Protocol 2 microdilution broth; type: cell-based; conditions: 12 isolates
Description: as §1, §2

[7] = tested on: Haemophilus influenzae; assay: MIC90 panel, Protocol 2 microdilution broth; type: cell-based; conditions: 55 isolates
Description: as §1, §2

[8] = tested on: Klebsiella pneumoniae; assay: MIC90 panel, Protocol 2 microdilution broth; type: cell-based; conditions: 12 isolates
Description: as §1, §2

[9] = tested on: Neisseria meningitidis; assay: MIC90 panel, Protocol #3 agar dilution; type: cell-based; conditions: 12 isolates
[10] = tested on: M. avium 3404.4; assay: MIC, Protocol #4 Mycobacterium species; type: cell-based
[11] = tested on: Clostridium difficile; assay: MIC90 panel, Protocol #3 agar dilution; type: cell-based; conditions: 16 isolates
[12] = tested on: M. abscessus MC 5960; assay: MIC, Protocol #4 Mycobacterium species; type: cell-based
[13] = tested on: Pseudomonas aeruginosa PAO750; assay: MIC, Protocol 2 microdilution broth, Gram negatives; type: cell-based
Description: as §1, §2

[14] = tested on: Escherichia coli CHE30; assay: as above; type: cell-based
Description: as §1, §2

[15] = tested on: Moraxella catarrhalis ATCC 25238; assay: as above; parameters: unit not given beside the values
[16] = tested on: M. abscessus MC 6005; assay: MIC, Protocol #4 Mycobacterium species; type: cell-based
[17] = tested on: M. abscessus MC 5908; assay: MIC, Protocol #4 Mycobacterium species; type: cell-based; conditions: in µg/mL
[18] = tested on: Neisseria gonorrhoeae; assay: MIC90 panel, Protocol #3 agar dilution; type: cell-based; conditions: 13 isolates
[19] = tested on: N. nova 10; assay: MIC, Protocol #4 Mycobacterium species; type: cell-based
[20] = tested on: M. abscessus BB3; assay: MIC, Protocol #4 Mycobacterium species; type: cell-based
[21] = tested on: Bacillus subtilis ATCC 6638; assay: MIC, Protocol #1 microdilution broth; type: cell-based
[22] = tested on: Streptococcus pneumoniae; assay: MIC90 panel, Protocol #1 microdilution broth; type: cell-based; conditions: 67 isolates
[23] = tested on: Neisseria gonorrhoeae ATCC 49226; assay: MIC, Protocol #3 agar dilution; type: cell-based
[24] = tested on: M. avium Far; assay: MIC, Protocol #4 Mycobacterium species; type: cell-based
[25] = tested on: M. kansasii 316; assay: MIC, Protocol #4 Mycobacterium species; type: cell-based
[26] = tested on: M. abscessus BB10; assay: MIC, Protocol #4 Mycobacterium species; type: cell-based
[27] = tested on: M. abscessus BB8; assay: MIC, Protocol #4 Mycobacterium species; type: cell-based
[28] = tested on: M. tuberculosis H37Rv ATCC 25618; assay: MIC, Protocol #4 Mycobacterium species; type: cell-based
[29] = tested on: Enterococcus faecium ATCC 49624; assay: MIC, Protocol #1 microdilution broth; type: cell-based
[30] = tested on: Peptostreptococcus spp.; assay: MIC90 panel, Protocol #3 agar dilution; type: cell-based; conditions: 11 isolates
[31] = tested on: M. abscessus MC 5901; assay: MIC, Protocol #4 Mycobacterium species; type: cell-based
[32] = tested on: Bacillus cereus ATCC 14579; assay: MIC, Protocol #1 microdilution broth; type: cell-based
[33] = tested on: M. abscessus BB1; assay: MIC, Protocol #4 Mycobacterium species; type: cell-based
[34] = tested on: Staphlococcus epidermidis; assay: MIC90 panel, Protocol #1 microdilution broth; type: cell-based, Staphylococcus epidermidis; conditions: 35 isolates
[35] = tested on: M. abscessus LT 949; assay: MIC, Protocol #4 Mycobacterium species; type: cell-based
[36] = tested on: M. abscessus BB5; assay: MIC, Protocol #4 Mycobacterium species; type: cell-based
[37] = tested on: Mycobacterium avium 103; assay: MIC, Protocol #4 Mycobacterium species; type: cell-based
[38] = tested on: Bacteroides and Parabacter spp.; assay: MIC90 panel, Protocol #3 agar dilution; type: cell-based; conditions: 26 isolates
[39] = tested on: Clostridium difficile ATCC BAA-1382; assay: MIC, Protocol #3 agar dilution; type: cell-based
[40] = Stability data of solid forms on storage; type: physicochemical

CCNC(=O)Nc1nc2cc(-c3cnc(C(C)(C)O)nc3)c(F)c([C@H]3CCCO3)c2[nH]1 [Compound 24, 1-ethyl-3-[6-fluoro-5-[2-(1-hydroxy-1-methyl-ethyl)pyrimidin-5-yl]-7-[(2R)-tetrahydrofuran-2-yl]-1H-benzimidazol-2-yl]urea]
MIC90 [1]: 0.03 µg/mL (≈ 0.07 µM)
MIC Range [1]: ≦0.004-0.03 μg/ml
MIC90 [2]: > 8 µg/mL
MIC90 [3]: > 8 µg/mL
MIC90 [4]: > 8 µg/mL
MIC90 [5]: > 8 µg/mL
MIC90 [6]: > 8 µg/mL
MIC90 [7]: 1 µg/mL (≈ 2.33 µM)
MIC Range [7]: 0.06 to 2 µg/mL
MIC90 [8]: > 8 µg/mL
MIC90 [9]: 0.03 µg/mL (≈ 0.07 µM)
MIC Range [9]: 0.008 to 0.06 µg/mL
MIC [10]: 0.23 µg/mL (≈ 0.537 µM)
MIC Range [11]: 0.06 to 4 µg/mL
MIC90 ([11]; Clostridioides difficile): 0.25 µg/mL (≈ 0.583 µM)
MIC [12]: 0.5 µg/mL (≈ 1.17 µM)
MIC [13]: 0.25 µg/mL (≈ 0.583 µM)
MIC [14]: 8 µg/mL (≈ 18.7 µM)
MIC [15]: ≦0.016
MIC [16]: 1 µg/mL (≈ 2.33 µM)
MIC [17]: 1 and 1.5
MIC90 [18]: 0.25 µg/mL (≈ 0.583 µM)
MIC Range [18]: 0.12 to 0.25 µg/mL
MIC [19]: 1 µg/mL (≈ 2.33 µM)
MIC [20]: 0.5 µg/mL (≈ 1.17 µM)
MIC [21]: 2 µg/mL (≈ 4.67 µM)
MIC90 [22]: 0.015 µg/mL (≈ 0.035 µM)
MIC Range [22]: 0.008 to 0.03 µg/mL
MIC [23]: 1 µg/mL (≈ 2.33 µM)
MIC [24]: 0.23 µg/mL (≈ 0.537 µM)
MIC [25]: 0.06 µg/mL (≈ 0.14 µM)
MIC [26]: 0.015 µg/mL (≈ 0.035 µM)
MIC [27]: 0.5 µg/mL (≈ 1.17 µM)
MIC [28]: 0.015 µg/mL (≈ 0.035 µM)
MIC ([29]; Enterococcus faecium ATCC 49624): 0.11 µg/mL (≈ 0.257 µM)
MIC ([29]; Enterococcus faecium ATCC 49624 with Laked Horse Blood): 0.11 µg/mL (≈ 0.257 µM)
MIC90 [30]: > 16 µg/mL
MIC [31]: 1 µg/mL (≈ 2.33 µM)
MIC [32]: 0.031 µg/mL (≈ 0.0724 µM)
MIC [33]: 2 µg/mL (≈ 4.67 µM)
MIC Range [34]: 0.008 to 0.03 µg/mL
MIC90 ([34]; Staphylococcus epidermidis): 0.03 µg/mL (≈ 0.07 µM)
MIC [35]: 1 µg/mL (≈ 2.33 µM)
MIC [36]: 0.5 µg/mL (≈ 1.17 µM)
MIC [37]: 0.18 µg/mL (≈ 0.42 µM)
MIC90 [38]: 16 µg/mL (≈ 37.3 µM)
MIC Range [38]: 0.12 to 16 µg/mL
MIC [39]: 0.38 µg/mL (≈ 0.887 µM)
chemical and physical stability ([40]; 25° C./60% RH, one week time point): chemically and physically unstable
chemical stability ([40]; 40° C./ambient, t=2 weeks): chemically unstable
